In US20200190043A1, “2-[[5-(TRIFLUOROMETHYL)-1,2,4-OXADIAZOL-3-YL]ARYLOXY](THIO)ACETAMIDES FOR COMBATING PHYTOPATHOGENIC FUNGI” (BASF SE, priority 2017, published 2020):

Experiments:
Puccinia recondita [1] = test: Curative control of brown rust on wheat (glass house trial); assay type: in vivo; settings: 63 ppm active compound, wheat seedlings, untreated plants 80% diseased leaf area
Experimental: (§1) A mixture was prepared of acetone and/or dimethylsulfoxide and the wetting agent/emulsifier Wettol, which is based on ethoxylated alkylphenoles, in a relation (volume) solvent-emulsifier of 99 to 1 was added to the compound to give a total of 5 ml. Water was then added to a total volume of 100 ml. This stock solution was diluted with the described solvent-emulsifier-water mixture to the given concentration. II.3) Curative Control of Brown Rust on Wheat Caused by Puccinia recondita The first two developed leaves of pot-grown wheat seedling were dusted with spores of Puccinia recondita. To ensure the success the artificial inoculation, the plants were transferred to a humid chamber without light and a relative humidity of 95 to 99% and 20 to 24° C. for 24 hours. The next day the plants were cultivated for 3 days in a greenhouse chamber at 20 to 24° C. and a relative humidity between 65 and 70%. Then the plants were sprayed to run-off with an aqueous suspension, containing the concentration of active ingredient or their mixture as described below. The plants could air-dry. Then the trial plants were cultivated for 8 days in a greenhouse chamber at 20 to 24° C. and a relative humidity between 65 and 70%. The extent of fungal attack on the leaves was visually assessed as % diseased leaf area.

Puccinia recondita [2] = test: Preventative control of brown rust on wheat (glass house trial); assay type: in vivo; settings: 63 ppm active compound, wheat seedlings, untreated plants 80% diseased leaf area
Experimental: as §1, with “II.4) Preventative” for “II.3) Curative”, “sprayed to run-off with an aqueous suspension, containing the concentration of active ingredient or their mixture as described below. The next day the plants were inoculated” for “dusted”, “hours.” for “hours. The next day the plants were cultivated for 3 days in a greenhouse chamber at 20 to 24° C. and a relative humidity between 65 and 70%. Then the plants were sprayed to run-off with an aqueous suspension, containing the concentration of active ingredient or their mixture as described below. The plants could air-dry.”, “6” for “8”

CN(C)C(=O)C(F)(F)Oc1ccc(-c2noc(C(F)(F)F)n2)cc1 [I-2]
diseased leaf area (Puccinia recondita [1]): 3%
diseased leaf area (Puccinia recondita [2]): 2%
